Laboratory results reported in patent US9340500B2, “Aromatic heterocyclic derivative having TRPV4-inhibiting activity” (SHIONOGI & CO., LTD., priority 2011, dated 2016).
In brackets after ≈: the same amount, converted by molar mass.

Experiments:
human TRPV4 [1] = target: T1, human TRPV4 (Homo sapiens (Human), UniProt Q9HBA0); test: Test Example 1: measurement of TRPV4 inhibitory activity (Fluo 4-AM, FLIPR TETRA, 4α-PDD 1 μmol/L); assay type: cell-based; conditions: hTRPV4/CHO cells; for IC50: 4α-PDD 1 μmol/L; for Ki: calculated from IC50 and 4α-PDD EC50
T1 sequence (Q9HBA0 whole entry): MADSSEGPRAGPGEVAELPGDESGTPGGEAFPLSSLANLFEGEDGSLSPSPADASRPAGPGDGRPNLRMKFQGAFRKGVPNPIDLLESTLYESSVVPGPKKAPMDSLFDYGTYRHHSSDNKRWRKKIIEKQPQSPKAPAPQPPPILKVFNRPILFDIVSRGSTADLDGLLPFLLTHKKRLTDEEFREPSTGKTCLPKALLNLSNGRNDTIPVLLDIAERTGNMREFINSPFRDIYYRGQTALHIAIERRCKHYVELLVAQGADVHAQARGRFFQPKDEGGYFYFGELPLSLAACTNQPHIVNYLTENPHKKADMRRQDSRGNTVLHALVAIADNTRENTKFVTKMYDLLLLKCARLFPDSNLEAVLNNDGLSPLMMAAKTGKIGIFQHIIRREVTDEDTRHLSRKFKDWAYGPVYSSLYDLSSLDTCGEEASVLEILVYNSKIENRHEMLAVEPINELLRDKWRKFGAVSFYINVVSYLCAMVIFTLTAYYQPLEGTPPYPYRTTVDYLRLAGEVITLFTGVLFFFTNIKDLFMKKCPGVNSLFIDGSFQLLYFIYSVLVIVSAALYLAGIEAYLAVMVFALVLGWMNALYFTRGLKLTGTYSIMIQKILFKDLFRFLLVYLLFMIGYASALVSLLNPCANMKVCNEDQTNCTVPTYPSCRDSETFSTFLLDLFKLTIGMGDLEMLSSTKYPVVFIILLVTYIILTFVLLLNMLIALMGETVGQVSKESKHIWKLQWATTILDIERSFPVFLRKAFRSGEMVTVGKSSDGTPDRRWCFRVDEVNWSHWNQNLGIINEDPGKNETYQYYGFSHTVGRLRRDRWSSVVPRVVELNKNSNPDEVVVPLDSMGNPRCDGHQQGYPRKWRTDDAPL
Protocol: (§1) For each compound, TRPV4 inhibitory activity was measured using cells.
(§2) (1) The TRPV4 inhibitory activity was measured using CHO-K1 cells stably expressing human TRPV4 (hTRPV4/CHO cells).
(2) In the day before the experimental day, frozen cell were thawed and washed with the culture medium (MEM-α, 10% FBS, 2 mmol/L GlutaMax, 50 unit Penicillin, 50 μg/mL Streptomycin). Then cells were suspended in the culture medium.
(3) The 384-well plates which hTRPV4/CHO cells were seeded at densities of 4000 cells/well in the culture medium and cultured in a CO2 incubator in the presence of 5% CO2 at 37° C. for overnight was used as assay plates.
(4) The assay plate was washed with assay buffer (Hanks, 20 mmol/L HEPES, 2.5 mmol/L probenecid, pH7.4), and the buffer were remained at 20 μL/well.
(5) 10 μl of dye loading buffer (9 μmol/L Fluo 4-AM, 0.09% Pluronic F-127/assay buffer) was added to each well, then the assay plate was incubated in a CO2 incubator in the presence of 5% CO2 at 37° C. for one hour. (final 3 μmol/L Fluo4-AM).
(6) The assay plate was washed with the assay buffer, and the buffers were remained at 20 μL/well. Then the assay plate was incubated for 10 min at room temperature.
(7) Diluted compound solution was dispensed to each well in the compound plate, and mixed with built-in Pipette and Mixer of the Fluorescence analysis system FLIPR TETRA (Molecular devices).
(8) After incubation for 5 min, 20 μL of 4α-PDD solution were applied to each well of assay plate and mixed with the FLIPR TETRA. (final 1 μmol/L 4α-PDD)
(9) The fluorescent intensity was measured with FLIPR TETRA system for 10 min from the point of time addition the compound solution, at Ex 470-495 nm, Em 515-575 nm wavelength.
TRPV4 inhibitory activity (IC50 value and Ki value) of a compound was evaluated according to the following procedure.
(10) In the presence of the compound, the difference between maximal and minimal of fluorescent intensity value for 5 min from just before addition of 4α-PDD solution was calculated, and it was referred as Max-Min value. Max-Min value of the Ruthenium Red at 20 μM was defined as 100% inhibitory activity, Max-Min value in the absence of the compound was defined as 0% inhibitory activity. The TRPV4 inhibitory activity of the compound was calculated by the following formula. (1−(Max-Min value of the compound−100% inhibitory activity)/(0% inhibitory activity−100% inhibitory activity))×100 (11) Inhibitory activity was calculated at 10 points with three fold serial dilution, in the final concentration of the compound from 10 μmmol/L to 0.5 nmol/L, the IC50 value was calculated by logistic approximation method. (12) In the absence of the compound, the fluorescent intensity was measured as the same method with 10, 1, 0.5, 0.2, and 0 μmol/L as final concentration of 4α-PDD. The difference of minimal and maximal fluorescent intensity value for 5 min from just before addition of 4α-PDD solution was calculated, and it was referred as Max-Min value. Max-Min value of the 4α-PDD at 10 μmol/L was defined as 100% activity, Max-Min value in the absence of 4α-PDD was defined as 0% activity. The TRPV4 activity of each concentration of 4α-PDD was calculated by the following formula. (Max-Min value of the each 4α-PDD concentration−0% activity)/(100% activity−0% activity))×100 (13) Effective activity was calculated in 5 concentrations of 4α-PDD the above. The EC50 value was calculated by logistic approximation method. The Ki value of a compound was calculated by the following formula. Ki (nmol/L)=IC50 value (nmol/L)/(1+[…] (test 4α-PDD concentration (nmol/L)/EC50 value (nmol/L))

Solubility test = assay type: physicochemical; conditions: fassgf or other biorelevant, kinetic from dmso stock, artificial intestinal juice pH 6.8, 16 hours at 25° C.
Protocol: The solubility of each compound is determined under 1% DMSO addition conditions. A 10 mmol/L solution of the compound is prepared with DMSO, and 6 μL of the compound solution is added to 594 μL of an artificial intestinal juice (water and 118 mL of 0.2 mol/L NaOH reagent are added to 250 mL of 0.2 mol/L potassium dihydrogen phosphate reagent to reach 1000 mL) with a pH of 6.8. The mixture is left standing for 16 hours at 25° C., and the mixture is vacuum-filtered. The filtrate is two-fold diluted with methanol/water=1/1, and the compound concentration in the filtrate is measured with HPLC or LC/MS/MS by the absolute calibration method.

human TRPV4 [2] = target: T1, human TRPV4; test: Test Example 3: measurement of TRPV4 inhibitory activity (Fluo-3, FDSS 3000, 4α-PDD); assay type: cell-based; conditions: hTRPV4/CHO cells, calculated from IC50 and 4α-PDD EC50
Protocol: as §1, §2
(2) Frozen cells were thawed and subcultured with the medium (MEM-α, 10% FBS, […], 50 unit/mL penicillin, 50 μg/mL streptomycin, 1 mg/mL G418).
(3) The 96-well plates which hTRPV4/CHO cells were seeded at densities of 2×10^4 cells/well in the culture medium and cultured in a CO2 incubator in the presence of 5% CO2 at 37° C. for 24 h was used as assay plates.
(4) The assay plate was washed with assay buffer (Hanks, […], […], pH7.4).
(5) Fluo-3, fluorescent dye for Ca influx assay was added to each well, then the assay plate was incubated in a CO2 incubator in the presence of 5% CO2 at 37° C. for one hour (final conc.; 5 μmmol/L Fluo-3).
(6) The assay plate was washed with the assay buffer, and the buffer was remained at 30 μL/well. Then the assay plate was incubated for 10 min at 37° C.
(7) Diluted compound solution was dispensed to each well in the compound plate, and mixed with built-in Pipette and Mixer of the fluorescence analysis system FDSS 3000 (Hamamatsu Photonics).
(8) 50 μL of 4α-PDD solution (concluding 0.1% Pluronic F-127) was applied to each well of assay plate and mixed.
(9) The fluorescent intensity was measured by FDSS 3000 for 8 min from the point of time addition the compound solution, at Ex 480 nm, Em 540 nm wavelength.
TRPV4 inhibitory activity (Ki value) of a compound was evaluated according to the following procedure.
(10) In the presence of the compound, the difference between maximal and minimal of fluorescent intensity value for 8 min from just before addition of 4α-PDD solution was calculated, and it was referred as Max-Min value. Max-Min value of the Ruthenium Red at 10 μM was defined as 100% inhibitory activity, Max-Min value in the absence of the compound was defined as 0% inhibitory activity. The TRPV4 inhibitory activity of the compound was calculated by the following formula. (1−(Max-Min value of the compound−100% inhibitory activity)/(0% inhibitory activity−100% inhibitory activity))×100 (11) By the following formula, inhibitory activity was calculated at 10 points with three fold serial dilution, in the final concentration of the compound from 10 μmmol/L to 0.5 nmol/L. The IC50 value was calculated by dose-response curve. 100−[(fluorescent intensity in the presence of the compound−fluorescent intensity of back ground)/(total fluorescent intensity−fluorescent intensity of back ground)]×100 (12) In the presence of the compound, activity of 4α-PDD was measured at 9 points with three fold serial dilution from 20 μmol/L. Activity of 4α-PDD was calculated by the following formula. (Max-Min value of the each 4α-PDD concentration−0% activity)/(100% activity−0% activity))×100 (13) Effective activity was calculated in 4α-PDD the above. The EC50 value was calculated by dose-response curve. (14) The Ki value of a compound was calculated by the following formula. Ki (nmol/L)=IC50 value (nmol/L)/([A]/EC50 value (nmol/L)) [A]; Concentration of agonist (nmol/L)

[3] = artificial intestinal juice (phosphate buffer) with 1% DMSO

SMILES | IC50 (human TRPV4 [1]) | Ki (human TRPV4 [1]) | solubility at 16 h (Solubility test; [3]) | Ki (human TRPV4 [2]) | solubility at 16 h (Solubility test; artificial intestinal juice (phosphate buffer), 1% DMSO)
Cc1c(C(=O)Nc2cccc(C(F)(F)F)c2)cc(-c2ccncc2)n1CCCN1CCOCC1 [Compound I-074] | 1700 nM | 780 nM | > 50 µM | – | –
Cc1c(C(=O)Nc2cccc(C(F)(F)F)c2)cc(-c2ccccc2)n1CCCO [Compound I-006] | 2300 nM | – | – | 1060 nM | –
Cc1c(C(=O)Nc2cccc(C(F)(F)F)c2)cc(-c2ccccc2)n1CCCN(C)CC(C)C [Compound I-032] | 640 nM | – | – | 1610 nM | –
Cc1c(C(=O)Nc2cccc(C(F)(F)F)c2)cc(-c2ccccc2)n1CCCN(C)CC1CC1 [Compound I-033] | – | – | 26.8 µM (≈ 12.6 µg/mL) | 655 nM | –
Cc1c(C(=O)Nc2cccc(C(F)(F)F)c2)cc(-c2ccccc2)n1CCCN(C)CC1CCN(C)CC1 [Compound I-039] | – | – | > 50 µM | 282 nM | –
Cc1c(C(=O)Nc2cccc(C(F)(F)F)c2)cc(-c2ccccc2)n1CCCN(C)CC(C)(C)CN(C)C [Compound I-038] | – | – | > 50 µM | 352 nM | –
CC(=O)NCCCn1c(-c2ccccc2)cc(C(=O)Nc2cccc(C(F)(F)F)c2)c1C [Compound I-025] | 3200 nM | – | – | 1130 nM | –
CC(=O)N1CCC(c2cc(C(=O)Nc3cccc(C(F)(F)F)c3)c(C)n2CCCN2CCOCC2)CC1 [Compound I-077] | 4700 nM | 2000 nM | > 50 µM | – | –
O=C(Nc1cccc(C(F)(F)F)c1)c1cc(-c2ccccc2)n(CCCN2CCOCC2)c1C(F)(F)F [Compound I-028] | 3800 nM | – | – | 1710 nM | –
Cc1c(C(=O)Nc2cccc(C(F)(F)F)c2)cc(-c2ccccn2)n1CCCN1CCOCC1 [Compound I-073] | 340 nM | 160 nM | 28.9 µM (≈ 13.7 µg/mL) | – | –
Cc1c(C(=O)Nc2cccc(C(F)(F)F)c2)cc(-c2ccccc2)n1CCCN(C)C(=O)C1CCCC1 [Compound I-049] | 240 nM | – | – | 418 nM | –
O=C(Nc1cccc(C(F)(F)F)c1)c1cnc(-c2ccccc2)c(CCCN2CCOCC2)c1 [Compound I-088] | 5800 nM | 2800 nM | 35.1 µM (≈ 16.5 µg/mL) | – | –
COCCCn1c(-c2ccccc2)cc(C(=O)Nc2cccc(C(F)(F)F)c2)c1C [Compound I-010] | 800 nM | – | – | 714 nM | –
COC(=O)NCCCn1c(-c2ccccc2)cc(C(=O)Nc2cccc(C(F)(F)F)c2)c1C [Compound I-027] | 1800 nM | – | – | 936 nM | –
Cc1c(C(=O)Nc2ccc(Cl)cn2)cc(-c2ccccc2)n1CCCN1CCOCC1 [Compound I-004] | – | – | 39.2 µM (≈ 17.2 µg/mL) | 1570 nM | –
Cc1c(C(=O)Nc2cccc(C(F)(F)F)c2)nc(-c2ccccc2)n1CCCN1CCOCC1 [Compound I-087] | – | – | – | – | 5.2 µM (≈ 2.46 µg/mL)
Cc1cc(C(=O)Nc2cccc(C(F)(F)F)c2)c(C)n1CCCN1CCOCC1 [Compound I-017] | – | – | > 50 µM | 1560 nM | –
O=C(Nc1cccc(C(F)(F)F)c1)c1cc(-c2ccccc2)nn1CCCN1CCOCC1 [Compound I-085] | 1300 nM | 590 nM | 14.5 µM (≈ 6.65 µg/mL) | – | –
Cc1c(C(=O)Nc2cccc(C(F)(F)F)c2)cc(C#N)n1CCCN1CCOCC1 [Compound I-079] | 7800 nM | 3200 nM | 40.2 µM (≈ 16.9 µg/mL) | – | –
O=C(Nc1cccc(C(F)(F)F)c1)c1cc(-c2ccccc2)n(CCCN2CCOCC2)n1 [Compound I-086] | 3400 nM | 1600 nM | 8.3 µM (≈ 3.81 µg/mL) | – | –
CC(=O)N(C)CCCn1c(-c2ccccc2)cc(C(=O)Nc2cccc(C(F)(F)F)c2)c1C [Compound I-070] | 590 nM | – | – | 1680 nM | –
Cc1c(NC(=O)Nc2cccc(C(F)(F)F)c2)cc(-c2ccccc2)n1CCCN1CCOCC1 [Compound I-081] | 3900 nM | – | – | 1610 nM | –
Cc1c(C(=O)Nc2cccc(C(F)(F)F)c2)cc(-c2ccccc2)n1CCCN1CCCCC1 [Compound I-008] | 82 nM | – | – | 327 nM | –
Cc1c(C(=O)Nc2cccc(C(F)(F)F)c2)cc(C2CCN(S(C)(=O)=O)CC2)n1CCCN1CCOCC1 [Compound I-078] | 4900 nM | 2100 nM | 20.1 µM (≈ 11.2 µg/mL) | – | –
Cc1c(C(=O)Nc2cccc(C(F)(F)F)c2)cc(-c2ccccc2)n1CCN1CCOCC1 [Compound I-083] | 400 nM | – | – | 443 nM | –
Cc1c(C(=O)Nc2cccc(C(F)(F)F)c2)cc(-c2ccccc2)n1CCCN(C)C(=O)c1ccno1 [Compound I-063] | 510 nM | – | – | 251 nM | –
CC(=O)N1CCN(CCCn2c(-c3ccccc3)cc(C(=O)Nc3cccc(C(F)(F)F)c3)c2C)CC1 [Compound I-015] | 2600 nM | – | – | 1440 nM | –
Cc1c(C(=O)Nc2ccc(C(F)(F)F)cc2)cc(-c2ccccc2)n1CCCN1CCOCC1 [Compound I-024] | 340 nM | – | – | 755 nM | –
